From patent publication US20070111265A1, “Ligands for mineralocorticoid receptor (MR) and methods for screening for or designing MR ligands” (Van Andel Research Institute, priority 2005, published 2007)
Like-named read-outs stand apart in the source and are kept apart here.

Molecular target: T1, wild type GR (full-length) (Homo sapiens, UniProt P04150)
T1 sequence (P04150 1-777): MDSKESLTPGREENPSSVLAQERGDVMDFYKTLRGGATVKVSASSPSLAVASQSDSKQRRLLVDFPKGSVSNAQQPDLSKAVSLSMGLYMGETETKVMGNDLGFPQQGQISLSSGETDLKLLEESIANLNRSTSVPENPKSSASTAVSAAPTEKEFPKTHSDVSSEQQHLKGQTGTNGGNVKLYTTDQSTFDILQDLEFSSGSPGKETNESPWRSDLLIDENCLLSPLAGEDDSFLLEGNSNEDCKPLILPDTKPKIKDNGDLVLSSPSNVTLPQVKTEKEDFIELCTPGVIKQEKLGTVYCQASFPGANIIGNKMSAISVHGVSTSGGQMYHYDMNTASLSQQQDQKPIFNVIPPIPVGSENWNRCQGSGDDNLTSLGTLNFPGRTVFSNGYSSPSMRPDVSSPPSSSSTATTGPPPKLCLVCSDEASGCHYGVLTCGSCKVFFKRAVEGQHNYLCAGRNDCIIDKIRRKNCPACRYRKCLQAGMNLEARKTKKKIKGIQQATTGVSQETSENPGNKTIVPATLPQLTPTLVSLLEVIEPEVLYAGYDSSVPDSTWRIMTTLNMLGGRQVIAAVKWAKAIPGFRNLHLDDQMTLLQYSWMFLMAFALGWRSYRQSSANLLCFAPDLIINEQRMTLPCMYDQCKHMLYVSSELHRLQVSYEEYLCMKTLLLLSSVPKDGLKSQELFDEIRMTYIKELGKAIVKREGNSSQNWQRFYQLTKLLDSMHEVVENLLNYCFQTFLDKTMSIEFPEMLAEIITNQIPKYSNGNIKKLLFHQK
Assay: MMTV luciferase reporter assay in Cos-7 cells
Format: cell-based
Procedure: Cos-7 cells were maintained in DMEM containing 10% fetal bovine serum (FBS) and were transiently transfected using Lipofectamine 2000 (Invitrogen). […] Cells were transfected in Opti-MEM with 400 ng of MMTV-Luc reporter plasmid and 400 ng of receptor expression vector (pRS vector) encoding full-length GR and MR respectively (ATCC). […] Luciferase data were normalized to Renilla activity as an internal control.
To validate the role of the key MR pocket residues in hormone recognition, the inventors mutated S843 and L848 to the corresponding GR residues (S843P and L848Q) within the context of the full length wild type receptor. […] We also performed reverse mutations in the full length GR receptor (P637S and Q642L) and tested them in the same MMTV reporter.

EC50 (Cos-7, MMTV-Luc, read-out: EC50, activation of wild type GR): ~20 nM | EC50 (summary of FIG. 5 dose-response, read-out: affinity to GR (shown in FIG. 5)): ~10 nM
SMILES: C[C@]12C[C@H](O)[C@H]3[C@@H](CCC4=CC(=O)CC[C@@]43C)[C@@H]1CC[C@@H]2C(=O)CO [corticosterone]
